Assay results taken from US8357694B2, “Substituted 5,6-dihydro-6-phenylbenzo[F]isoquinolin-2-amine compounds” (ArQule, Inc., priority 2008, dated 2013).
Where a name gives a salt, the structure may show the parent alone.

`CC(C)(C)OC(=O)N1CCC[C@@H](Nc2ncc3c(n2)-c2ccccc2[C@@H](c2ccc(Cl)c(Cl)c2)C3)C1` and `CC(C)(C)OC(=O)N1CCC[C@@H](Nc2ncc3c(n2)-c2ccccc2[C@H](c2ccc(Cl)c(Cl)c2)C3)C1` fall in the same range of melting point: 85 to 87 °C for the first, 85 to 87 °C for the second.

`Nc1ncc2c(n1)-c1ccccc1C(c1ccc(Cl)c(Cl)c1)C2` (stereo not drawn) and `Nc1ncc2c(n1)-c1ccccc1[C@@H](c1ccc(Cl)c(Cl)c1)C2` fall in the same range of melting point: 159 to 160 °C for the first, 159 to 160 °C for the second.

First: Clc1ccc(C2Cc3cnc(Nc4ccc(CCN5CCCCC5)cc4)nc3-c3ccccc32)cc1Cl (stereo not drawn)
Second: Clc1ccc([C@H]2Cc3cnc(Nc4ccc(CCN5CCCCC5)cc4)nc3-c3ccccc32)cc1Cl
The melting point of the first is higher: 181 to 183 °C for the first, 157 to 158 °C for the second.

Compared with `Nc1ncc2c(n1)-c1ccccc1[C@H](c1ccc(Cl)c(Cl)c1)C2`, `Nc1ncc2c(n1)-c1ccccc1[C@H](c1ccccc1F)C2` (as salt: hydrochloride) [Example 24, (R)-6-(2-fluorophenyl)-5,6-dihydrobenzo[h]quinazolin-2-amine] is lower in melting point: 159 to 160 °C for the first, 154 to 155 °C for the second.

Compared with `OCCc1ccc(Nc2ncc3c(n2)-c2ccccc2C(c2ccc(Cl)c(Cl)c2)C3)cc1` (stereo not drawn), `OCCc1ccc(Nc2ncc3c(n2)-c2ccccc2[C@@H](c2ccc(Cl)c(Cl)c2)C3)cc1` is higher in melting point: 94 to 96 °C for the first, 113 to 115 °C for the second.

`CN(CCc1ccccc1)CCc1ccc(Nc2ncc3c(n2)-c2ccccc2[C@H](c2cccc(Br)c2)C3)cc1` (as salt: HCl) [Example 81, (S)-6-(3-bromophenyl)-N-(4-(2-(methyl(phenethyl)amino)ethyl)phenyl)-5,6-dihydrobenzo[h]quinazolin-2-amine] and `CCCCN(C)CCc1ccc(Nc2ncc3c(n2)-c2ccccc2[C@H](c2cccc(Br)c2)C3)cc1` (as salt: hydrochloride) [Example 80, (S)-6-(3-bromophenyl)-N-(4-(2-(butyl(methyl)amino)ethyl)phenyl)-5,6-dihydrobenzo[h]quinazolin-2-amine hydrochloride] fall in the same range of melting point: 146 to 153 °C for the first, 146 to 153 °C for the second.

First: COCCNCCc1ccc(Nc2ncc3c(n2)-c2ccccc2[C@H](c2ccc(F)c(F)c2)C3)cc1 (as salt: HCl) [Example 82, (S)-6-(3,4-difluorophenyl)-N-(4-(2-(2-methoxyethylamino)ethyl)phenyl)-5,6-dihydrobenzo[h]quinazolin-2-amine]
Second: CCCCN(C)CCc1ccc(Nc2ncc3c(n2)-c2ccccc2C(c2ccc(F)c(F)c2)C3)cc1 (stereo not drawn) (as salt: hydrochloride) [Example 58, N-(4-(2-(butyl(methyl)amino)ethyl)phenyl)-6-(3,4-difluorophenyl)-5,6-dihydrobenzo[h]quinazolin-2-amine]
The melting point of the first is higher: 221 to 225 °C for the first, 85 to 91 °C for the second.

First: CN(CCc1ccc(Nc2ncc3c(n2)-c2ccccc2[C@H](c2ccccc2F)C3)cc1)C1CCCCC1 (as salt: HCl) [Example 95, (R)—N-(4-(2-(cyclohexyl(methyl)amino)ethyl)phenyl)-6-(2-fluorophenyl)-5,6-dihydrobenzo[h]quinazolin-2-amine]
Second: CN(CCc1ccc(Nc2ncc3c(n2)-c2ccccc2C(c2ccc(F)c(F)c2)C3)cc1)C1CCCCC1 (stereo not drawn) (as salt: hydrochloride) [Example 60, N-(4-(2-(cyclohexyl(methyl)amino)ethyl)phenyl)-6-(3,4-difluorophenyl)-5,6-dihydrobenzo[h]quinazolin-2-amine]
The melting point of the first is higher: 158 to 164 °C for the first, 107 to 114 °C for the second.

Compared with `COCCNCc1cccc(Nc2ncc3c(n2)-c2ccccc2[C@H](c2ccccc2F)C3)c1` (as salt: HCl) [Example 158, (R)-6-(2-fluorophenyl)-N-(3-((2-methoxyethylamino)methyl)phenyl)-5,6-dihydrobenzo[h]quinazolin-2-amine], `CCCCN(C)CCc1cccc(Nc2ncc3c(n2)-c2ccccc2[C@H](c2ccccc2F)C3)c1` (as salt: hydrochloride) is higher in melting point: 139 to 147 °C for the first, 163 to 167 °C for the second.

First: Clc1ccc([C@@H]2Cc3cnc(Nc4ccc(CCN5CCCCC5)cc4)nc3-c3ccccc32)cc1 (as salt: hydrochloride)
Second: Clc1ccc(C2Cc3cnc(Nc4ccc(CCN5CCCCC5)cc4)nc3-c3ccccc32)cc1 (stereo not drawn) (as salt: hydrochloride) [Example 53, 6-(4-chlorophenyl)-N-(4-(2-(piperidin-1-yl)ethyl)phenyl)-5,6 dihydrobenzo[h]quinazolin-2-amine]
The melting point of the first is higher: 261 to 263 °C for the first, 170 to 175 °C for the second.

First: CCCCN(C)CCc1ccc(Nc2ncc3c(n2)-c2ccccc2[C@H](c2ccc(Cl)cc2)C3)cc1 (as salt: hydrochloride)
Second: CCCCN(C)CCc1ccc(Nc2ncc3c(n2)-c2ccccc2C(c2ccc(Cl)cc2)C3)cc1 (stereo not drawn) (as salt: hydrochloride)
The melting point of the first is lower: 75 to 77 °C for the first, 145 to 150 °C for the second.

First: CN(CCc1ccccc1)CCc1cccc(Nc2ncc3c(n2)-c2ccccc2[C@H](c2ccc(Cl)c(Cl)c2)C3)c1 (as salt: hydrochloride)
Second: COCCN1CCN(CCc2cccc(Nc3ncc4c(n3)-c3ccccc3[C@H](c3ccc(Cl)c(Cl)c3)C4)c2)CC1 (as salt: hydrochloride)
The melting point of the first is lower: 154 to 157 °C for the first, 220 to 225 °C for the second.

Compared with `COCCN1CCN(CCc2ccc(Nc3ncc4c(n3)-c3ccccc3[C@@H](c3ccccc3Cl)C4)cc2)CC1` (as salt: hydrochloride), `COCCN1CCN(CCc2ccc(Nc3ncc4c(n3)-c3ccccc3[C@H](c3ccccc3F)C4)cc2)CC1` (as salt: hydrochloride) [Example 66, (R)-6-(2-fluorophenyl)-N-(4-(2-(4-(2-methoxyethyl)piperazin-1-yl)ethyl)phenyl)-5,6-dihydrobenzo[h]quinazolin-2-amine hydrochloride] is higher in melting point: 143 to 145 °C for the first, 212 to 216 °C for the second.

First: Clc1ccccc1[C@H]1Cc2cnc(Nc3ccc(CCN4CCCCC4)cc3)nc2-c2ccccc21 (as salt: hydrochloride)
Second: Fc1ccccc1[C@@H]1Cc2cnc(Nc3ccc(CCN4CCCCC4)cc3)nc2-c2ccccc21 (as salt: hydrochloride) [Example 67, (R)-6-(2-fluorophenyl)-N-(4-(2-(piperidin-1-yl)ethyl)phenyl)-5,6-dihydrobenzo[h]quinazolin-2-amine hydrochloride]
The melting point of the first is lower: 164 to 167 °C for the first, 170 to 174 °C for the second.

`COCCN1CCN(CCc2ccc(Nc3ncc4c(n3)-c3ccccc3C(c3ccc(Cl)cc3Cl)C4)cc2)CC1` (stereo not drawn) (as salt: hydrochloride) and `COCCN1CCN(CCc2ccc(Nc3ncc4c(n3)-c3ccccc3C(c3ccc(Cl)cc3)C4)cc2)CC1` (stereo not drawn) (as salt: hydrochloride) [Example 56, 6-(4-chlorophenyl)-N-(4-(2-(4-(2-methoxyethyl)piperazin-1-yl)ethyl)phenyl)-5,6-dihydrobenzo[h]quinazolin-2-amine hydrochloride] cannot be ordered by melting point: 208 to 212 °C for the first, 204 to 214 °C for the second.

First: Fc1ccc(C2Cc3cnc(Nc4ccc(CCN5CCCCC5)cc4)nc3-c3ccccc32)cc1F (stereo not drawn) (as salt: hydrochloride) [Example 57, 6-(3,4-difluorophenyl)-N-(4-(2-(piperidin-1-yl)ethyl)phenyl)-5,6-dihydrobenzo[h]quinazolin-2-amine]
Second: Fc1ccc([C@@H]2Cc3cnc(Nc4ccc(CCN5CCCCC5)cc4)nc3-c3ccccc32)cc1F (as salt: hydrochloride) [Example 84, (S)-6-(3,4-difluorophenyl)-N-(4-(2-(piperidin-1-yl)ethyl)phenyl)-5,6-dihydrobenzo[h]quinazolin-2-amine hydrochloride]
The melting point of the first is higher: 214 to 218 °C for the first, 163 to 165 °C for the second.

First: Clc1ccc(C2Cc3cnc(Nc4ccc(CCN5CCCCC5)cc4)nc3-c3ccccc32)c(Cl)c1 (stereo not drawn) (as salt: hydrochloride) [Example 76, 6-(2,4-dichlorophenyl)-N-(4-(2-(piperidin-1-yl)ethyl)phenyl)-5,6-dihydrobenzo[h]quinazolin-2-amine hydrochloride]
Second: Brc1cccc([C@@H]2Cc3cnc(Nc4ccc(CCN5CCCCC5)cc4)nc3-c3ccccc32)c1 (as salt: hydrochloride) [Example 78, (S)-6-(3-bromophenyl)-N-(4-(2-(piperidin-1-yl)ethyl)phenyl)-5,6-dihydrobenzo[h]quinazolin-2-amine hydrochloride]
The melting point of the first is higher: 225 to 230 °C for the first, 120 to 125 °C for the second.

First: COCCN1CCN(CCc2ccc(Nc3ncc4c(n3)-c3ccccc3[C@H](c3cccc(Br)c3)C4)cc2)CC1 (as salt: hydrochloride) [Example 77, (S)-6-(3-bromophenyl)-N-(4-(2-(4-(2-methoxyethyl)piperazin-1-yl)ethyl)phenyl)-5,6-dihydrobenzo[h]quinazolin-2-amine hydrochloride]
Second: COCCN1CCN(CCc2ccc(Nc3ncc4c(n3)-c3ccccc3[C@H](c3ccc(F)c(F)c3)C4)cc2)CC1 (as salt: hydrochloride) [Example 83, N-(4-(2-(4-(2-(S)-6-(3,4-difluorophenyl)-N-(4-(2-(4-(2-methoxyethyl)piperazin-1-yl)ethyl)phenyl)-5,6-dihydrobenzo[h]quinazolin-2-amine hydrochloride]
The melting point of the first is higher: 263 to 265 °C for the first, 190 to 192 °C for the second.

First: CN(CCc1ccc(Nc2ncc3c(n2)-c2ccccc2[C@H](c2cccc(Br)c2)C3)cc1)C1CCCCC1 (as salt: hydrochloride) [Example 79, (S)-6-(3-bromophenyl)-N-(4-(2-(cyclohexyl(methyl)amino)ethyl)phenyl)-5,6-dihydrobenzo[h]quinazolin-2-amine hydrochloride]
Second: CN(CCc1ccc(Nc2ncc3c(n2)-c2ccccc2[C@H](c2ccc(F)c(F)c2)C3)cc1)C1CCCCC1 (as salt: hydrochloride) [Example 85, (S)—N-(4-(2-(cyclohexyl(methyl)amino)ethyl)phenyl)-6-(3,4-difluorophenyl)-5,6-dihydrobenzo[h]quinazolin-2-amine hydrochloride]
The melting point of the first is higher: 167 to 172 °C for the first, 96 to 98 °C for the second.

Work on `COCCNCCc1ccc(Nc2ncc3c(n2)-c2ccccc2[C@H](c2ccc(F)c(F)c2)C3)cc1` (as salt: hydrochloride) [Example 86, (S)-6-(3,4-difluorophenyl)-N-(4-(2-(2-methoxyethylamino)ethyl)phenyl)-5,6-dihydrobenzo[h]quinazolin-2-amine hydrochloride] yielded a melting point of 85 to 87 °C.
